Source: patent US11458132B2, “Quinolin-2(1H)-one inhibitors of Late SV40 Factor” (TRUSTEES OF BOSTON UNIVERSITY, priority 2020, dated 2022)

Assays:
FH-B cells [1] = experiment: Microtubule sedimentation assay; format: cell-based, human
Procedure: Cell lysate preparation: For microtubule sedimentation assays, cells were treated as indicated in the figure legends, washed with PBS and incubated in 250 μl of microtubule sedimentation assay lysis buffer (100 mM PIPES pH 6.8, 2 M glycerol, 2 mM EGTA, 5 mM MgCl2, 0.1% Triton X-100) supplemented with 1 μM taxol, protease inhibitor cocktail (1:200, Abcam, ab201111) and phosphatase inhibitor cocktail (1:100, Abcam, ab201115) for 20 minutes at 37° C. Two hundred μl of scraped lysate was centrifuged at 21,000×g for 10 minutes at room temperature. Supernatants were saved as soluble fractions. Pellets were resuspended in 200 μl RIPA buffer (50 mM Tris HCl pH 8.0, 150 mM NaCl, 1% IGEPAL CA630, 0.05% deoxycholic acid) supplemented with 1.05% SDS, protease inhibitor cocktail (1:200) and phosphatase inhibitor cocktail (1:100) and incubated at 100° C. for 15 minutes. Pellet suspensions were centrifuged as before and supernatants were saved as pellet fractions.
Gel electrophoresis and immunoblotting: Microtubule sedimentation fractions and MLC2 analysis samples were separated by electrophoresis through tris-glycine and tricine polyacrylamide gels, respectively, which were transferred to PVDF membranes. Membranes with microtubule sedimentation fractions and MLC2 analysis samples were blocked in 5% milk in TBST and in 5% BSA in TBST, respectively. After overnight incubation with primary antibody at 4° C., the membranes were washed and incubated with secondary antibody for 1 hour at room temperature. Primary antibodies included anti-α-tubulin (1:2,000, Thermo Fisher Scientific, PA529444), anti-acetylated tubulin (1:1,000, Sigma-Aldrich, T7451), anti-phospho MYL9 (1:200, Thermo Fisher Scientific, PA517727), and anti-β-actin (1:5,000, Sigma-Aldrich, A1978). Secondary antibodies included Goat anti-Rabbit HRP (Thermo Fisher Scientific, 31460; 1:10,000 for anti-α-tubulin; 1:5,000 for anti-phospho MYL9), and Goat anti-Mouse HRP (Thermo Fisher Scientific, 62-6520; 1:5,000 for anti-acetylated tubulin; 1:10,000-1:20,000 for anti-β-actin). Membranes were placed into Pierce™ ECL Western Blotting Substrate (Thermo Fisher Scientific, 32106). Autoradiography film was exposed to each membrane for various times to ensure acquisition of non-saturated exposures. Band intensities were quantified from scanned films by densitometry using ImageJ.

FH-B cells [2] = experiment: Cell motility tracking; format: cell-based, human; settings: thymidine block, 4 μM FQI1
Procedure: Cell motility tracking: After overnight seeding in high μ-dishes, cells were synchronized by incubating in 2 mM thymidine for 18-20 hours. Thereafter, cells were treated with 4 μM FQI1 or vehicle (0.01% DMSO) for 1 hour, followed by a 10-min incubation in NucSpot® Live 650 dye (Biotium, 40082) following the manufacturer's instructions. Subsequently, cells were imaged every 2 minutes for 2 hours in an environmental chamber of a Nikon C2 Si microscope at 37° C. and 5% CO2 at 20× magnification. Cells that underwent mitosis during the 2-hour period were excluded from the analysis. Using ImageJ, individual nuclei were monitored using the Manual Tracking tool and the distances between starting and end points were integrated into swarmplots using Python's seaborn library.

HT-29 cells = experiment: Allogeneic HT-29 xenograft model in athymic mice; format: in vivo
Excerpt: Syngeneic and allogeneic xenograft models: We used 8-12 weeks-old athymic female mice for the allogeneic xenograft model and C57BL/6 mice for a syngeneic xenograft model, as described previously^26,27. All the mice were obtained from The Jackson Laboratory and housed at Boston University Medical Center based on the approval from the Institutional Animal Care and Use Committee. Each mouse was implanted subcutaneously on the dorsal surface and was monitored for tumor growth as measured with a VWR Digital Caliper. The tumor volume was calculated twice a week using the equation: length×width×height.
The mice were randomly separated into two groups once tumor volumes reached 100 mm^3. The FQI2-34 was suspended in a mixture of ethanol and DMSO. The mixture was agitated until the compound had completely dissolved. This solution was further diluted in 20% PEG 400 and water to give a final concentration of 2 mg/ml. FQI2-34 or vehicle was injected intraperitoneally daily at 5 mg/kg for 5 days, followed by a break for 2 days. After 21 days, both groups of mice were sacrificed, and the tumors were harvested.
Cell culture and other reagents: HT-29 cells were obtained from ATCC and grown in the Roswell Park Memorial Institute (RPMI) medium supplemented with 10% FBS and penicillin and streptomycin. Cells were injected with the growth-factor poor Matrigel (Millipore, catalogue number DLW354263) using a 23-gauge needle for a total volume of 200 microliters. The MC38 cell line was obtained from ATCC and grown in RPMI medium supplemented with 10% FBS and penicillin and streptomycin.
IHC was performed on the paraffin-embedded tumors as described previously^26-28. The manufacturer's protocol was used along with reagents from the Abcam Mouse and Rabbit Specific HRP/DAB IHC Detection Kit—Micro-polymer (ab236466). Primary antibodies and their dilutions used to detect the respective proteins were: Axin2 (Abcam, #ab32197, 1:100), β-catenin (BD Biosciences, #610154, 1:100), LSF (BD Biosciences, #610818, 1:100), SOX9 (Abcam, #ab185230, 1:100), Ki-67 (Cell Signaling, #8D5, 1:100). […]
All images and quantification were performed using the Nikon Eclipse TE2000 Inverted Microscope with the color camera at the Boston University School of Medicine (BUSM) Imaging Core. Random high-power field (hpf) images of every tumor sample were obtained. For quantification the signal was converted to grayscale, and the number and intensity of pixels were analyzed as integrated density by using Fiji. The integrated density of all the images was normalized to its area. The images were processed in ImageJ (National Institutes of Health, Bethesda, Md.) to quantitate the expression of SOX-9, AXIN-2, and LSF. Regions of interest were drawn and the expression was measured using integrated density normalized to the surface area. The average normalized integrated image densities from multiple hpfs were used to perform the correlational analysis between expression levels of pairs of proteins.

[3] = xenografts, immunohistochemistry

Compound	time after addition at which a drop in pelleted tubulin is observed (FH-B cells [1]; 4 μM FQI1) [min]	microtubule stability and α-tubulin acetylation in the microtubule fraction (FH-B cells [1]; 4 μM FQI1 (15- and 30-minute pellets), 1 μM nocodazole or taxol 30 minutes)	cell displacement over a 2-hour period (FH-B cells [2])	tumor volumes compared to controls (HT-29 cells; day 9, day 12 and day 17)	histopathological analysis of tumors (H & E) (HT-29 cells; day 21)	tumor volume, treated versus control (HT-29 cells; day 21) [times]	tumor volume (HT-29 cells; day 21, 5 mg/kg intraperitoneally daily for 5 days each week) [mm^3]	AXIN2, CCND1 and SOX9 by quantitative RT-PCR (HT-29 cells; xenograft lysates at end of treatment)	increase in TUNEL-positive cells (HT-29 cells; xenografts) [fold]	CRC cells with nuclear β-catenin, lower than control (HT-29 cells; [3]) [fold]	downregulation of Ki-67 (HT-29 cells; [3]) [fold]	reduction in AXIN2 (integrated density) (HT-29 cells; [3]) [fold]	reduction in SOX9 (integrated density) (HT-29 cells; [3]) [fold]
CCOc1ccccc1C1CC(=O)Nc2cc3c(cc21)OCO3 (stereo not shown) [FQI1, 8-(2-ethoxyphenyl)-7,8-dihydro-[1,3]dioxolo[4,5-g]quinolin-6(5H)-one]	1	increase in the amount of acetylated α-tubulin in the microtubule fraction	significantly smaller range of motion										
CCOc1cc(N(C)C)ccc1-c1cc(=O)[nH]c2cc3c(cc12)OCO3 [FQI2-34, 8-(4-(dimethylamino)-2-ethoxyphenyl)-[1,3]dioxolo[4,5-g]quinolin-6(5H)-one]				significantly lower tumor volumes	lower tumor mass organized in luminal regions interspersed within the interstitium	2	1120±193	significantly downregulated	1.8	4	4.2	5	3.2
